The record followed here is the METLIN SMRT retention time set (Domingo-Almenara et al. 2019).

A short description of this series: gradient 5% acetonitrile 3 min, to 50% in 2 min, to 85% in 15 min, held 3 min, 100 µL/min. The note with it: column: Zorbax Extend-C18 2.1 x 50 mm; eluents: water / acetonitrile, 0.1% formic acid. In a few lines:
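Each retention time is based on an adduct peak selected computationally and verified by manual inspection. Measurements used HPLC–quadrupole time-of-flight mass spectrometry in positive and negative ionization mode on mixtures of ~100 pure standards. Chromatography ran on a Zorbax Extend-C18 column (2.1 × 50 mm, 1.8 μm) at 100 μL/min with water and acetonitrile, each containing 0.1% formic acid, and dead and dwell volumes of 40 μL and 900 μL.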
Turning to `O=C(O)c1nnn(Cc2ccccc2F)c1-c1cccnc1`, the RP-LC retention time was 633 s. The value for `Cc1ccc(S(=O)(=O)N2CCC(c3nc(-c4ccccn4)no3)CC2)cc1` was 916 s; that for `Cc1ccc2c(c1)c1c3n2CCN(c2nc(-c4ccccc4)cs2)C3CCC1` (stereo unspecified) was 901 s; that for `CCn1cc(C(=O)NC2CCCC2)c2nn(-c3ccccc3)c(=O)c-2c1` was 851 s.

For `CCN1C(=O)c2cccnc2Sc2cc(NC(=O)c3ccc(Br)o3)ccc21`, the RP-LC retention time came out at 842 s. The same measure for `Cc1ccc(C(C)C)cc1S(=O)(=O)Nc1cccc(-c2cn3ccccc3n2)c1`: 739 s; for `Cc1nc(-c2cc(S(=O)(=O)Nc3ccc(Br)cc3)c(C)s2)cs1`: 1070 s; for `O=C(C1CCN(S(=O)(=O)c2ccc(-c3noc(C4CC4)n3)cc2)CC1)N1CCc2ccccc2C1`: 1050 s. The same measure for `COc1ccc(Cl)cc1NC(=O)c1cc(C(C)C)n2nccc2n1`: 1310 s; for `Cc1nc(C)c(C(=O)N2CC(Oc3cccc(-c4nc(-c5ccccc5)no4)c3)C2)s1`: 1110 s; for `Cn1c(-c2cccs2)nn(CCNC(=O)c2ccccc2SC(F)F)c1=O`: 677 s.

`COc1cc(OC)c(NC(=O)Nc2c(-c3ccccc3)nc3ccccn23)cc1Cl` showed an RP-LC retention time of 682 s. `Cc1noc(C2CN(C(=O)Nc3cccc(Cl)c3)CC23CCOCC3)n1` (stereo unspecified) yielded an RP-LC retention time of 786 s.

Consider `CC(C)c1ccc(NC(=O)C2CCCN(S(=O)(=O)c3c[nH]c(C(=O)N4CCCC4)c3)C2)cc1` (stereo unspecified), for which the RP-LC retention time worked out at 939 s.

`CCOC(=O)N1CCN(Cc2c(O)ccc3ccccc23)CC1` gave an RP-LC retention time of 691 s.

As for `O=C(NC1CCCC1)C1CCN(C(=O)c2cccn2-c2cccnc2)CC1`, the RP-LC retention time worked out at 632 s. On to `Cc1ccc(NC(=O)N2CCC(c3cc(N)on3)CC2)cc1F`, for which the RP-LC retention time stood at 733 s. The value for `CN1CCN(CCCNC(=O)C2CCN(S(=O)(=O)c3ccc4c(c3)sc(=O)n4C)CC2)CC1` was 580 s; that for `CCC(=O)NCC[C@@H]1CCc2ccc3c(c21)CCO3` was 833 s; that for `CCOc1ccc(N2C(=O)CN(C(C)c3ccccc3)[C@H]3CS(=O)(=O)C[C@H]32)cc1` (stereo partly specified) was 863 s. In turn, `COCCC1(NS(C)(=O)=O)CCN(C(=O)NCC(C)C)CC1` registered an RP-LC retention time of 646 s. `CCOc1ccc(N2CC(c3nnc(NC(=O)CC4CCCCC4)o3)CC2=O)cc1` (stereo unspecified) came in with an RP-LC retention time of 804 s.

On to `CN(C)c1ccc2c(c1)CN(C(=O)c1cnn(C)c1)CCO2`, for which the RP-LC retention time is 560 s. `CCNS(=O)(=O)c1cc(-c2csc(C)n2)ccc1OC` came in with an RP-LC retention time of 784 s. The value for `CCc1ccccc1N(CC)C(=O)C1CCCN(c2ncnc3c2nc2n3CCCCC2)C1` (stereo unspecified) was 964 s; that for `COc1ncc(C(=O)N2CCN(c3ccc(F)cc3)CC2)cn1` was 735 s; that for `Cc1cc(C)n(-c2cc(N3CCCC(C(=O)Nc4nccs4)C3)ncn2)n1` (stereo unspecified) was 749 s. The value for `CCOc1ccc(S(=O)(=O)N(CC(=O)N2CCNCC2)C(C)C)cc1` was 625 s; that for `Cc1nc2cc(N3CC(C(=O)Nc4ccccc4)CC3=O)ccc2o1` (stereo unspecified) was 703 s. In the case of `O=C(NC1CC1)c1ccc(-c2ccsc2)nc1`, the RP-LC retention time was determined as 688 s. `Cc1nc(C)c(C(=O)Nc2ccc(C)c(F)c2)s1` gave an RP-LC retention time of 860 s. As to `CC1=NS(=O)(=O)N(C)C=C1C(=O)OCCOc1ccccc1`, the RP-LC retention time came out at 921 s. Compound `COc1ccc(-c2ccc(=O)n(Cc3nc(-c4cccc(Cl)c4)no3)n2)cc1` came in with an RP-LC retention time of 1080 s.

Turning to `Cc1nc2cc(N3CC(C(=O)Nc4ccc(F)cc4C)CC3=O)ccc2o1` (stereo unspecified), the RP-LC retention time was 718 s. `COc1ccc(NC(=O)N2CCC(n3c(C(F)(F)F)nc4cccnc43)CC2)cc1OC` came in with an RP-LC retention time of 768 s. For the compound `CCOc1ccc2nc(Nc3ncc4c(n3)CC(c3ccc(C)cc3)CC4=O)nc(C)c2c1` (stereo unspecified), the RP-LC retention time was 886 s.

Take `COc1ccc(OC)c(S(=O)(=O)N2CCOCCNC(=O)[C@H]3CCCC[C@H]32)c1`: the RP-LC retention time was found to be 772 s. The same measure for `CCN1C(=O)c2c(C(=O)NCCCc3ccccc3)ncn2CC1(C)C(=O)NC1CCCC1` (stereo unspecified): 822 s; for `O=C(O)c1nnn(-c2ccc3c(c2)OCCO3)c1-c1ccccn1`: 640 s; for `Cc1cc(C)c(S(=O)(=O)N2CC(c3nc(Cc4ccccc4)no3)C2)c(C)c1`: 1190 s. On to `Cc1nccn1-c1cc(C(C)C)c(C#N)c2nc3ccccc3n12`, for which the RP-LC retention time was 622 s. Turning to `O=C(NCCCn1c(-c2ccncc2)nc2cccnc21)Nc1ccc(F)c(Cl)c1`, the RP-LC retention time turned out to be 693 s. `Cc1oc(C(C)C)nc1C(=O)Nc1ccc(F)c(Cl)c1` displayed an RP-LC retention time of 1170 s. Compound `O=C([C@@H]1C[C@H](F)CN1S(=O)(=O)c1ccc(F)c(F)c1)N1CCc2ccccc2C1` displayed an RP-LC retention time of 943 s. `O=C1C=C(N2CCNCC2)C(=O)c2c(O)ccc(O)c21`: the RP-LC retention time was 600 s. `N#Cc1cnc2nc(-c3ccccc3)nn2c1N` came in with an RP-LC retention time of 663 s. The same measure for `O=C(Cn1nc(N2CCCCCC2)c2ccccc2c1=O)Nc1ccccc1`: 1050 s; for `Cc1[nH]c(C(=O)N2CCC(CC(=O)NC3CCCCCC3)CC2)c(C)c1C`: 872 s; for `CC(Oc1ccccc1)C(=O)Nc1ccc2c(c1)Sc1ncccc1C(=O)N2C(C)C` (stereo unspecified): 930 s. The value for `Cc1ccc(NC(=O)Cn2cnc3nc(N4CCC(C(=O)NC5CC5)CC4)sc3c2=O)c(F)c1` was 655 s; that for `O=C(Cn1c(-c2cccs2)cc2cc(Cl)ccc21)NCCCN1CCOCC1` was 726 s; that for `CC1=C/C(=C2/N=C(N(C)C)SS2)C(C)=N1` was 611 s. For `Cn1c(=O)c(C(=O)N2CCN(c3ccccn3)CC2)nn(-c2ccccc2)c1=O`, the RP-LC retention time is 604 s. In turn, `COc1ccc(CCNC(=O)N2CCC(c3nnc(C(F)(F)F)o3)CC2)cc1` gave an RP-LC retention time of 764 s.

`c1ccc(-n2nnnc2N2CCN(c3ccccn3)CC2)cc1` returned an RP-LC retention time of 571 s. In turn, `Cc1cc(C)cc(NC(=O)C2CCCN(S(=O)(=O)c3c[nH]c(C(=O)N4CCCCCC4)c3)C2)c1` (stereo unspecified) registered an RP-LC retention time of 955 s. Regarding `CCCC(NC(=O)c1ccc2c(c1)OCO2)C(=O)Nc1nc2ccccc2[nH]1` (stereo unspecified), the RP-LC retention time came to 670 s. The value for `CC(C)(C)NC(=O)N1CCCC(c2nc(CCOCC3CCOCC3)no2)C1` (stereo unspecified) was 728 s; that for `CC(C)c1cc(C(=O)Nc2ccc(C#N)cc2)nc2ccnn12` was 1030 s. The same measure for `COc1ccc(/C=C/C(=O)c2c(OC)cc(O)cc2OC)cc1`: 1160 s; for `CCCN(CC1CCOC1)C(=O)Nc1ccccc1Cl` (stereo unspecified): 846 s. For the compound `COC(=O)c1ncn2c1C(=O)N(Cc1ccccc1)C(C)(C(=O)NC1CCCCCC1)C2` (stereo unspecified), the RP-LC retention time was 777 s. As to `CN(C)c1ccc(CNC(=O)Cn2cc(-c3nnco3)c3ccccc32)cc1`, the RP-LC retention time was determined as 615 s. Compound `O=C(NCc1ccccc1)C1CC(=O)N(c2ccc3c(c2)CCN3C(=O)C2CC2)C1` (stereo unspecified) returned an RP-LC retention time of 727 s. The same measure for `Cc1nccn1CC(=O)N1CCC(OCc2nc(C3CC3)no2)CC1`: 577 s; for `COc1cc(OC)c(NC(=O)C2CCN(S(=O)(=O)c3cn(C(C)C)cn3)CC2)cc1Cl`: 814 s. As for `O=C(c1cccs1)N1CCCC(c2nn[nH]n2)C1` (stereo unspecified), the RP-LC retention time came out at 627 s. The same measure for `O=S(=O)(c1ccc(-c2noc(-c3ccc(F)cc3)n2)cc1)N1CCOCC1`: 1050 s; for `CCOCCCNC(=O)CCCN1C(=O)CCn2nc(C)cc21`: 568 s. Turning to `CN1C(=O)CC[C@]2(C(=O)NCc3ccc(F)c(Cl)c3)CCCC[C@@H]12`, the RP-LC retention time came out at 718 s. Compound `O=C(NCc1ccco1)c1cc2c(s1)CCN(C(=O)c1ccc(Cl)cc1)C2` gave an RP-LC retention time of 846 s. In turn, `CCC(C(=O)NCCN1CCOCC1)n1nc(C)c2nn(-c3ccccc3)c(C)c2c1=O` (stereo unspecified) showed an RP-LC retention time of 640 s. Consider `CCc1nc(-c2ccc(-c3noc(CNS(=O)(=O)c4ccc(Cl)cc4)n3)cc2)cs1`, for which the RP-LC retention time amounted to 1110 s.

Consider `c1ccc(-c2nc[nH]c2-c2ccccc2)cc1`, for which the RP-LC retention time was found to be 696 s. Regarding `CCCN1C(=O)Cc2cc(C(=O)N3CCN(c4ccc(OC)cc4)CC3)ccc21`, the RP-LC retention time came to 748 s. Take `CCn1cc(C)c(C(=O)O)c1CC(=O)N(C)c1cccc(Cl)c1`: the RP-LC retention time was found to be 792 s. `CN(CC(=O)Nc1cccnc1)c1nc2ccccc2s1`: the RP-LC retention time was 568 s. In turn, `CN(C)[C@@H]1CN(Cc2cccc(OC(F)(F)F)c2)CC[C@@H]1CO` displayed an RP-LC retention time of 585 s. For the compound `CCOc1ccccc1NC(=O)N1CCc2nc(OCCOC)ccc2C1`, the RP-LC retention time stood at 871 s. With `COCCN1C(=O)CCc2cc(NC(=O)c3cncc(Br)c3)ccc21`, the RP-LC retention time is 716 s. In turn, `Cc1cc(C)cc(NC(=O)N2CC(c3nc(C)no3)C3(CCOCC3)C2)c1` (stereo unspecified) showed an RP-LC retention time of 706 s.
